The target of this experiment is T1, α4β7 integrin (Homo sapiens, UniProt P13612+P26010).
T1 construct: a cell line RPMI-8866, which is known to express α4β7 integrin; endogenous in cells; host or cells: RPMI-8866 (human B cell line)
T1 sequence (P13612 34-1032): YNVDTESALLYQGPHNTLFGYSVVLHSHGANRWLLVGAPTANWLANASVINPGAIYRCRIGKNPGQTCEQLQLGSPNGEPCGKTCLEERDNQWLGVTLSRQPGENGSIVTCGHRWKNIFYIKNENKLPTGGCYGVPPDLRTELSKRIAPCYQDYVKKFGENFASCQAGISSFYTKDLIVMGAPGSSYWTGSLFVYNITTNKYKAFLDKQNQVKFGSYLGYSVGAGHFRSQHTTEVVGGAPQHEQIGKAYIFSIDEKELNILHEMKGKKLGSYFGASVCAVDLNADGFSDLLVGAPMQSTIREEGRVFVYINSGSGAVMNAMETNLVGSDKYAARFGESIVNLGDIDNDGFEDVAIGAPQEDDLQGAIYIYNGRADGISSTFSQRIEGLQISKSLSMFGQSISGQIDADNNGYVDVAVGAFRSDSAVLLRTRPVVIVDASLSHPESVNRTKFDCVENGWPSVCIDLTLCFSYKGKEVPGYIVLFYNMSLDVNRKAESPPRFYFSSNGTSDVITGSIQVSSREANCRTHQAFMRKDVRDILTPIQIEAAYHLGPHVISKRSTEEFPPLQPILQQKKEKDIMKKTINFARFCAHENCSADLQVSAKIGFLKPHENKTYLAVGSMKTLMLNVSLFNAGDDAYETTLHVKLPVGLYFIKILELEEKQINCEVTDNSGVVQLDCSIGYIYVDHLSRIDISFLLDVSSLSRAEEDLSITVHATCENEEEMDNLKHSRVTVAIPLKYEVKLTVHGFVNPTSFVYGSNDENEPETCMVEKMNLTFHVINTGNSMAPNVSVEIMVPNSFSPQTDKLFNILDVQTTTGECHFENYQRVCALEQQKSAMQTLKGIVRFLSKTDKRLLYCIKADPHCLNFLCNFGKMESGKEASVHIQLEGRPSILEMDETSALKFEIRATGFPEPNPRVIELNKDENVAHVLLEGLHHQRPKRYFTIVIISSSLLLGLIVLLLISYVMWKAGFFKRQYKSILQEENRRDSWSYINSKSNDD
T1 sequence (P26010 20-798): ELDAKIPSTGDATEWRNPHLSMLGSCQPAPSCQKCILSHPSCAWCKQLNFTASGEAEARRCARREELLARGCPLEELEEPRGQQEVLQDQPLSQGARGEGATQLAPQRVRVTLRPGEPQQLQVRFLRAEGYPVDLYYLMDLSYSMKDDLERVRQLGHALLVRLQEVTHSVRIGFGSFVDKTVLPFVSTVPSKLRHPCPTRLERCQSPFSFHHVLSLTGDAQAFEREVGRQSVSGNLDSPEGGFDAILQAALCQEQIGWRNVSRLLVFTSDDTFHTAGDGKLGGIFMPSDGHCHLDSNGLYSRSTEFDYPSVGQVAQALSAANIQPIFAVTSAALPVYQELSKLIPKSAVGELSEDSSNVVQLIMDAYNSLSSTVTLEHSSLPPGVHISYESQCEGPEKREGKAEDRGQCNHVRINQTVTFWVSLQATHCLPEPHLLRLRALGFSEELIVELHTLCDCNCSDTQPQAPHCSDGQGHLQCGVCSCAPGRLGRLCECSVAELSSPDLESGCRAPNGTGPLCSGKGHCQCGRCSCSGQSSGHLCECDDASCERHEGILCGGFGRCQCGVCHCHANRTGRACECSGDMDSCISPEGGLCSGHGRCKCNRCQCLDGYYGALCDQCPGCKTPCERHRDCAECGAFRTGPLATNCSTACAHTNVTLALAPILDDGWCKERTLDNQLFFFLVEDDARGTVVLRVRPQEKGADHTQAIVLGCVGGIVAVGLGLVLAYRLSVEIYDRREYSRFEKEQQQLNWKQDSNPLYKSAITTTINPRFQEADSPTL
The experiment can be described thus: MAdCAM-1/α4β7 integrin binding inhibitory activity evaluation test (RPMI-8866 cells binding to MAdCAM-1/Fc). The note with it: recombinant mouse MAdCAM-1/Fc, no serum. The experiment is classed as cell-based. The procedure: (2) MAdCAM-1/α4β7 Integrin Binding Inhibitory Activity Evaluation Test
Each test substance was measured in terms of an ability to inhibit the MAdCAM-1 binding of a human B cell line, namely, a cell line RPMI-8866, which is known to express α4β7 integrin.
A solution of recombinant mouse MAdCAM-1/Fc (R&D Systems, Inc.) (0.75 μg/mL) diluted with a buffer A (carbonate buffer, pH 9.6) was added in an amount of 50 μL/well to a 96-well microtiter plate, followed by incubation at 4° C. overnight. After the plate was washed with PBS once, 150 μL/well of Block Ace (Snow Brand Milk Products Co., Ltd.) was added, followed by incubation at room temperature for 2 hours. After removal, the plate was washed with PBS once.
Then, 100 μL of the RPMI-8866 cells (2×10^6 cells/mL) and 100 μL of the test substance at each of various concentrations diluted with a binding buffer (DMEM containing 40 mM HEPES, 0.2% BSA, and 4 mM MnCl2) were added on the plate coated with the MAdCAM-1/Fc (5×10^5 cells/well), followed by incubation at 30° C. for 15 to 60 minutes. After the cells were bound to the wells, the plate was washed with PBS to remove unbound cells. A buffer C (PBS containing 1.5% Triton X-100) in an amount 50 μL/well was added to the plate to lyse the bound RPMI-8866 cells. After 30 μL of a substrate buffer (Promega, CytoTox 96 Non-Radioactive Cytotoxicity Assay) was added to 30 μL of the cell lysate, a reaction was allowed to proceed at room temperature in the dark for 30 minutes. After 30 μL of a stop solution (Promega, CytoTox 96 Non-Radioactive Cytotoxicity Assay) was added to each, and then an absorbance at 490 nm was measured using a plate reader. The absorbance obtained here represents a detection result of an activity of lactate dehydrogenase (LDH) eluted in the supernatant of each well, that is, the absorbance is proportional to the number of RPMI-8866 cells bound to the MAdCAM-1 and thus remaining on the plate. The test was performed in duplicate. Provided that the absorbance of the well containing no test substance was 100%, a cell binding rate with the test substance at each of the various concentrations was figured out, and a concentration IC50 which brought about 50% binding inhibition was calculated.
The IC50 is the concentration that gives 50% inhibition. In the case of `COC1(C(=O)Nc2ccc(S(=O)(=O)Nc3cc(F)c(C(=O)N[C@@H](Cc4ccc(-n5c(=O)c6ccncc6n(C)c5=O)cc4)C(=O)O)cc3F)cc2)CC1` [Compound A16], the IC50 is 0.52 nM. The same measure for `Cc1c(C)n(C)c(=O)n(-c2ccc(C[C@H](NC(=O)c3cc(F)c(NS(=O)(=O)c4cccc(NC(=O)C(C)(C)C)c4)cc3F)C(=O)O)cn2)c1=O` [Compound A50]: 6.4 nM. As for `Cc1cn(C)c(=O)n(-c2ccc(C[C@H](NC(=O)c3cc(F)c(NS(=O)(=O)c4c[nH]c5cc(NC(=O)C(C)(C)C)ccc45)cc3F)C(=O)O)cn2)c1=O` [Compound A77], the IC50 was found to be 3.6 nM. In the case of `Cn1c(=O)n(-c2ccc(C[C@H](NC(=O)c3cc(F)c(NS(=O)(=O)c4ccc(NC(=O)C(C)(C)C)s4)cc3F)C(=O)O)cc2)c(=O)c2ccncc21` [Compound A9], the IC50 came out at 0.41 nM. `Cc1cn(C)c(=O)n(-c2ccc(C[C@H](NC(=O)c3cc(F)c(NS(=O)(=O)c4ccc(NC(=O)C5CCCC5)cc4)cc3F)C(=O)O)cn2)c1=O` [Compound A65]: the IC50 came to 3.3 nM. `Cc1c(C)n(C)c(=O)n(-c2ccc(C[C@H](NC(=O)c3cc(F)c(NS(=O)(=O)c4ccc(NC(=O)C(C)(C)C)cc4)cc3F)C(=O)O)cc2)c1=O` [Compound A8]: the IC50 came out at 0.33 nM. On to `Cc1cc(=O)n(-c2ccc(C[C@H](NC(=O)c3cc(F)c(NS(=O)(=O)c4ccc(NC(=O)C(C)(C)C)cc4)cc3F)C(=O)O)cn2)c(=O)n1C` [Compound A45], for which the IC50 was found to be 1.6 nM. Regarding `CN1C(=O)N(c2ccc(S(=O)(=O)Nc3cc(F)c(C(=O)N[C@@H](Cc4ccc(-n5c(=O)c6ccncc6n(C)c5=O)nc4)C(=O)O)cc3F)cc2)C(=O)C1(C)C` [Compound A38], the IC50 was found to be 5.2 nM. The same measure for `Cc1cc(=O)n(-c2ccc(C[C@H](NC(=O)c3cc(F)c(NS(=O)(=O)c4ccc(NC(=O)C(C)(C)C)cc4)cc3F)C(=O)O)nc2)c(=O)n1C` [Compound A72]: 1.8 nM. As for `CCC(CC)C(=O)Nc1ccc(S(=O)(=O)Nc2cc(F)c(C(=O)N[C@@H](Cc3ccc(-n4c(=O)ccn(C)c4=O)nc3)C(=O)O)cc2F)cc1` [Compound A61], the half-maximal inhibitory concentration (IC50) worked out at 6.9 nM. Turning to `Cc1c(C)n(C)c(=O)n(-c2ccc(C[C@H](NC(=O)c3cc(F)c(NS(=O)(=O)c4ccc(-n5ccc(C6CCOCC6)cc5=O)cc4)cc3F)C(=O)O)cc2)c1=O` [Compound A34], the IC50 came out at 3.4 nM. The same measure for `Cc1cn(C)c(=O)n(-c2ccc(C[C@H](NC(=O)c3cc(F)c(NS(=O)(=O)c4ccc(NC(=O)C#CC(C)(C)C)cc4)cc3F)C(=O)O)cn2)c1=O` [Compound A68]: 5 nM; for `CC(=O)Nc1ccc(S(=O)(=O)Nc2cc(F)c(C(=O)N[C@@H](Cc3ccc(-n4c(=O)c5ccncc5n(C)c4=O)cc3)C(=O)O)cc2F)cc1` [Compound A2]: 1.2 nM; for `CN1CCc2c(n(C)c(=O)n(-c3ccc(C[C@H](NC(=O)c4cc(F)c(NS(=O)(=O)c5ccc(NC(=O)C(C)(C)C)cc5)cc4F)C(=O)O)cc3)c2=O)C1` [Compound A41]: 0.29 nM. With `Cn1c2c(c(=O)n(-c3ccc(C[C@H](NC(=O)c4cc(F)c(NS(=O)(=O)c5ccc(NC(=O)C(C)(C)C)cc5)cc4F)C(=O)O)cn3)c1=O)CCOC2` [Compound A40], the IC50 was 0.74 nM. With `Cc1cn(C)c(=O)n(-c2ccc(C[C@H](NC(=O)c3cc(F)c(NS(=O)(=O)c4ccc5c(NC(=O)C(C)(C)C)c[nH]c5c4)cc3F)C(=O)O)cn2)c1=O` [Compound A74], the IC50 worked out at 7.8 nM. With `Cc1c(C)n(C)c(=O)n(-c2ccc(C[C@H](NC(=O)c3cc(F)c(NS(=O)(=O)c4ccc(N(C)C(=O)C(C)(C)C)cc4)cc3F)C(=O)O)cc2)c1=O` [Compound A35], the IC50 came to 9.8 nM. Take `Cn1c(=O)n(-c2ccc(C[C@H](NC(=O)c3cc(F)c(NS(=O)(=O)c4ccc(NC(=O)C(C)(C)C)cn4)cc3F)C(=O)O)cn2)c(=O)c2ccncc21` [Compound A31]: the IC50 turned out to be 0.71 nM. The same measure for `CN1CCC(=O)N(c2ccc(C[C@H](NC(=O)c3cc(F)c(NS(=O)(=O)c4ccc(NC(=O)C(C)(C)C)cc4)cc3F)C(=O)O)cn2)C1=O` [Compound A75, (2S)-2-[2,5-difluoro-4-[(4-pivalamidophenyl)sulfonamide]benzamido]-3-[6-(3-methyl-2,6-dioxotetrahydropyrimidin-1(2H)-yl)pyridin-3-yl]propanoic acid]: 4 nM; for `Cn1ccc(=O)n(-c2ccc(C[C@H](NC(=O)c3cc(F)c(NS(=O)(=O)c4ccc(NC(=O)C5CCCC5)cc4)cc3F)C(=O)O)cn2)c1=O` [Compound A64]: 5.5 nM; for `Cc1cc(=O)n(-c2ccc(C[C@H](NC(=O)c3cc(F)c(NS(=O)(=O)c4ccc(NC(=O)C(C)(C)C)cc4)cc3F)C(=O)O)cc2)c(=O)n1C` [Compound A46]: 0.76 nM. As for `Cn1c(=O)n(-c2ccc(C[C@H](NC(=O)c3cc(F)c(NS(=O)(=O)c4ccc(NC(=O)C(C)(C)CO)cc4)cc3F)C(=O)O)cc2)c(=O)c2ccncc21` [Compound A18], the IC50 was 0.36 nM. As for `Cc1c(CO)c(=O)n(-c2ccc(C[C@H](NC(=O)c3cc(F)c(NS(=O)(=O)c4ccc(NC(=O)C(C)(C)C)cc4)cc3F)C(=O)O)cc2)c(=O)n1C` [Compound A51], the concentration for half-maximal inhibition (IC50) is 3.1 nM.

(Values after US10562898B2, “Substituted benzenesulfonamides as inhibitors of alpha-4 beta-7 integrin activity” (EA PHARMA CO., LTD., priority 2016, dated 2020).)
